# PubChem BioAssay AID1963838 (Molecular Pharmacology Branch, DTP, NCI, 2024)
# Test system: 855422-203-R-J1-PDC complex spheroid viability
# Assay: Anticancer human tumor 855422-203-R-J1-PDC patient-derived bladder carcinoma cell line growth inhibition [POLQ]
# Conditions: for IC50: curve of first compound; for viability, T/C: stronger effect = lower value
# Summary of the method: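 Growth inhibition in 3D: complex spheroids (tumor PDC, HUVEC, MSC) treated with POLQ inhibitor combinations; where Cmax unknown, highest tested concentration 10 microM, except SN-38 at 1 microM.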
# [1] = second compound 0.0316 µM, first compound 0.0316 µM
# [2] = second compound 0.0316 µM, first compound 0.1 µM
# [3] = second compound 0.0316 µM, first compound 0.316 µM
# [4] = second compound 0.0316 µM, first compound 1 µM
# [5] = second compound 0.0316 µM, first compound 3.16 µM
# [6] = second compound 0.0316 µM, first compound 10 µM
# [7] = second compound 0.1 µM, first compound 0.0316 µM
# [8] = second compound 0.1 µM, first compound 0.1 µM
# [9] = second compound 0.1 µM, first compound 0.316 µM
# [10] = second compound 0.1 µM, first compound 1 µM
# [11] = second compound 0.1 µM, first compound 3.16 µM
# [12] = second compound 0.1 µM, first compound 10 µM
# [13] = second compound 0.316 µM, first compound 0.0316 µM
# [14] = second compound 0.316 µM, first compound 0.1 µM
# [15] = second compound 0.316 µM, first compound 0.316 µM
# [16] = second compound 0.316 µM, first compound 1 µM
# [17] = second compound 0.316 µM, first compound 3.16 µM
# [18] = second compound 0.316 µM, first compound 10 µM
# [19] = second compound 1 µM, first compound 0.0316 µM
# [20] = second compound 1 µM, first compound 0.1 µM
# [21] = second compound 1 µM, first compound 0.316 µM
# [22] = second compound 1 µM, first compound 1 µM
# [23] = second compound 1 µM, first compound 3.16 µM
# [24] = second compound 1 µM, first compound 10 µM
# [25] = second compound 3.16 µM, first compound 0.0316 µM
# [26] = second compound 3.16 µM, first compound 0.1 µM
# [27] = second compound 3.16 µM, first compound 0.316 µM
# [28] = second compound 3.16 µM, first compound 1 µM
# [29] = second compound 3.16 µM, first compound 3.16 µM
# [30] = second compound 3.16 µM, first compound 10 µM
# [31] = second compound 10 µM, first compound 0.0316 µM
# [32] = second compound 10 µM, first compound 0.1 µM
# [33] = second compound 10 µM, first compound 0.316 µM
# [34] = second compound 10 µM, first compound 1 µM
# [35] = second compound 10 µM, first compound 3.16 µM
# [36] = second compound 10 µM, first compound 10 µM
# 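Further: spheroids exposed to compounds for seven days before readout.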
smiles,measurement,setting,value
COc1cc(C2c3cc4c(cc3C(OC3OC5COC(C)OC5C(O)C3O)C3COC(=O)C23)OCO4)cc(OC)c1O (stereo unspecified) + COC1C(OC(N)=O)C(O)C(Oc2ccc3c(O)c(NC(=O)c4ccc(O)c(CC=C(C)C)c4)c(=O)oc3c2C)OC1(C)C,IC50,second compound 0.0316 µM,0.242 µM
same,IC50,second compound 0.1 µM,0.245 µM
same,IC50,second compound 0.316 µM,0.227 µM
same,IC50,second compound 1 µM,0.234 µM
same,IC50,second compound 3.16 µM,0.21 µM
same,IC50,second compound 10 µM,0.215 µM
same,"viability, T/C",[1],99.4%
same,"viability, T/C",[2],99.7%
same,"viability, T/C",[3],35.1%
same,"viability, T/C",[4],11.9%
same,"viability, T/C",[5],8.5%
same,"viability, T/C",[6],5.28%
same,"viability, T/C",[7],95.2%
same,"viability, T/C",[8],102%
same,"viability, T/C",[9],36.2%
same,"viability, T/C",[10],12.8%
same,"viability, T/C",[11],7.81%
same,"viability, T/C",[12],4.05%
same,"viability, T/C",[13],99.2%
same,"viability, T/C",[14],103%
same,"viability, T/C",[15],29.4%
same,"viability, T/C",[16],13.3%
same,"viability, T/C",[17],8.9%
same,"viability, T/C",[18],5.06%
same,"viability, T/C",[19],107%
same,"viability, T/C",[20],99.7%
same,"viability, T/C",[21],32.2%
same,"viability, T/C",[22],11.6%
same,"viability, T/C",[23],7.12%
same,"viability, T/C",[24],4.08%
same,"viability, T/C",[25],128%
same,"viability, T/C",[26],85.9%
same,"viability, T/C",[27],29.5%
same,"viability, T/C",[28],12.7%
same,"viability, T/C",[29],8.6%
same,"viability, T/C",[30],4.59%
same,"viability, T/C",[31],111%
same,"viability, T/C",[32],88.8%
same,"viability, T/C",[33],29.9%
same,"viability, T/C",[34],12.9%
same,"viability, T/C",[35],7.13%
same,"viability, T/C",[36],5.19%
O=c1[nH]cc(F)c(=O)[nH]1 + Nc1ccc(C#CCN(C(=O)Cc2ncc(C(F)(F)F)cc2C(F)(F)F)c2ccc(F)cc2)nn1,IC50,second compound 0.0316 µM,2.45 µM
same,IC50,second compound 0.1 µM,2.16 µM
same,IC50,second compound 0.316 µM,3 µM
same,IC50,second compound 1 µM,2.42 µM
same,IC50,second compound 3.16 µM,3.06 µM
same,IC50,second compound 10 µM,2.75 µM
same,"viability, T/C",[1],118%
same,"viability, T/C",[2],110%
same,"viability, T/C",[3],160%
same,"viability, T/C",[4],65.3%
same,"viability, T/C",[5],47.4%
same,"viability, T/C",[6],43.9%
same,"viability, T/C",[7],90.8%
same,"viability, T/C",[8],111%
same,"viability, T/C",[9],142%
same,"viability, T/C",[10],66.6%
same,"viability, T/C",[11],46.6%
same,"viability, T/C",[12],37.1%
same,"viability, T/C",[13],118%
same,"viability, T/C",[14],122%
same,"viability, T/C",[15],124%
same,"viability, T/C",[16],63.2%
same,"viability, T/C",[17],54%
same,"viability, T/C",[18],44.8%
same,"viability, T/C",[19],95.3%
same,"viability, T/C",[20],112%
same,"viability, T/C",[21],99.6%
same,"viability, T/C",[22],68.5%
same,"viability, T/C",[23],46.2%
same,"viability, T/C",[24],40%
same,"viability, T/C",[25],103%
same,"viability, T/C",[26],107%
same,"viability, T/C",[27],104%
same,"viability, T/C",[28],60.6%
same,"viability, T/C",[29],53.1%
same,"viability, T/C",[30],46.2%
same,"viability, T/C",[31],96.9%
same,"viability, T/C",[32],105%
same,"viability, T/C",[33],99.9%
same,"viability, T/C",[34],66.8%
same,"viability, T/C",[35],53.1%
same,"viability, T/C",[36],40.8%
C=CCn1c(=O)c2cnc(Nc3ccc(N4CCN(C)CC4)cc3)nc2n1-c1cccc(C(C)(C)O)n1 + COC1C(OC(N)=O)C(O)C(Oc2ccc3c(O)c(NC(=O)c4ccc(O)c(CC=C(C)C)c4)c(=O)oc3c2C)OC1(C)C,IC50,second compound 0.0316 µM,> 1 µM
same,IC50,second compound 0.1 µM,> 1 µM
same,IC50,second compound 0.316 µM,> 1 µM
same,IC50,second compound 1 µM,> 1 µM
same,IC50,second compound 3.16 µM,> 1 µM
same,IC50,second compound 10 µM,> 1 µM
same,"viability, T/C","second compound 0.0316 µM, first compound 0.00316 µM",90.6%
same,"viability, T/C","second compound 0.0316 µM, first compound 0.01 µM",93.2%
same,"viability, T/C",[1],96.4%
same,"viability, T/C",[2],94.5%
same,"viability, T/C",[3],92.1%
same,"viability, T/C",[4],101%
same,"viability, T/C","second compound 0.1 µM, first compound 0.00316 µM",95.9%
same,"viability, T/C","second compound 0.1 µM, first compound 0.01 µM",94.3%
same,"viability, T/C",[7],91.9%
same,"viability, T/C",[8],107%
same,"viability, T/C",[9],105%
same,"viability, T/C",[10],99.7%
same,"viability, T/C","second compound 0.316 µM, first compound 0.00316 µM",98.7%
same,"viability, T/C","second compound 0.316 µM, first compound 0.01 µM",103%
same,"viability, T/C",[13],95.9%
same,"viability, T/C",[14],106%
same,"viability, T/C",[15],109%
same,"viability, T/C",[16],103%
same,"viability, T/C","second compound 1 µM, first compound 0.00316 µM",91.5%
same,"viability, T/C","second compound 1 µM, first compound 0.01 µM",110%
same,"viability, T/C",[19],102%
same,"viability, T/C",[20],98.9%
same,"viability, T/C",[21],103%
same,"viability, T/C",[22],93.1%
same,"viability, T/C","second compound 3.16 µM, first compound 0.00316 µM",107%
same,"viability, T/C","second compound 3.16 µM, first compound 0.01 µM",95.4%
same,"viability, T/C",[25],94.1%
same,"viability, T/C",[26],102%
same,"viability, T/C",[27],113%
same,"viability, T/C",[28],91.9%
same,"viability, T/C","second compound 10 µM, first compound 0.00316 µM",105%
same,"viability, T/C","second compound 10 µM, first compound 0.01 µM",104%
same,"viability, T/C",[31],101%
same,"viability, T/C",[32],96%
same,"viability, T/C",[33],94.2%
same,"viability, T/C",[34],90%
